Measurements as given in PubChem BioAssay AID330 (DTP/NCI, 2004).
Values joined by “and” are separate entries in the source; they are usually repeats but may differ in a detail not shown here. Equal entries are not always repeated. Toxic doses and inconclusive results are not listed. The calls were made as follows: active = survival T/C of 150% or more; inactive = T/C below 125% in these data.

System: P388 leukemia ip, CD2F1 mice, survival T/C
Experiment: NCI In Vivo Anticancer Drug Screen. Data for tumor model P388 Leukemia (intraperitoneal) in CD2F1 (CDF1) mice
Settings: endpoint: median survival time, higher = longer survival
How it was run: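 Mice carrying the transplanted tumor received test compound or vehicle. Survival was recorded in each group, and the value is the treated-group measurement divided by that of the vehicle-treated control group.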

[1] = dose: 12.5 mg/kg/injection, schedule: Q01DX009 (ip), vehicle: Klucel (hydroxypropylcellulose) (HPC)
[2] = dose: 25.0 mg/kg/injection, schedule: Q01DX009 (ip), vehicle: Klucel (hydroxypropylcellulose) (HPC)
[3] = dose: 100.0 mg/kg/injection, schedule: Q01DX009 (ip), vehicle: Klucel (hydroxypropylcellulose) (HPC)
[4] = dose: 60.0 mg/kg/injection, schedule: Q01DX005 (ip), vehicle: saline with Tween-80
[5] = dose: 120.0 mg/kg/injection, schedule: Q01DX005 (ip), vehicle: saline with Tween-80
[6] = dose: 240.0 mg/kg/injection, schedule: Q01DX005 (ip), vehicle: saline with Tween-80
[7] = dose: 50.0 mg/kg/injection, schedule: Q01DX009 (ip), vehicle: saline
[8] = dose: 100.0 mg/kg/injection, schedule: Q01DX009 (ip), vehicle: saline

Measured: T/C

C[C@]12CCC(=O)C=C1CC[C@@H]1[C@@H]2C(=O)C[C@@]2(C)[C@H]1CC[C@]2(O)C(=O)C=O
inactive: [1] 111 % of control and 123 % of control | [2] 119 % of control | dose: 50.0 mg/kg/injection, schedule: Q01DX009 (ip), vehicle: Klucel (hydroxypropylcellulose) (HPC) 111 % of control and 120 % of control | [3] 102 % of control and 113 % of control

Brc1cccc[n+]1Cc1cc2ccccc2c2ccccc12
inactive: dose: 25.0 mg/kg/injection, schedule: Q04DX002 (ip), vehicle: Klucel (hydroxypropylcellulose) (HPC) 105 % of control | dose: 50.0 mg/kg/injection, schedule: Q04DX002 (ip), vehicle: Klucel (hydroxypropylcellulose) (HPC) 106 % of control | dose: 100.0 mg/kg/injection, schedule: Q04DX002 (ip), vehicle: Klucel (hydroxypropylcellulose) (HPC) 112 % of control

C1CCOCCOCCOCCOCCOCCCCCC2(CC1)OCCO2
inactive: dose: 50.0 mg/kg/injection, schedule: Q01DX005 (ip), vehicle: saline with Tween-80 96 % of control | dose: 100.0 mg/kg/injection, schedule: Q01DX005 (ip), vehicle: saline with Tween-80 94 % of control | dose: 200.0 mg/kg/injection, schedule: Q01DX005 (ip), vehicle: saline with Tween-80 96 % of control

CC(C)(Oc1ccc(-c2cccc3ccccc23)cc1)C(=O)O
inactive: dose: 6.25 mg/kg/injection, schedule: Q01DX009 (ip), vehicle: Klucel (hydroxypropylcellulose) (HPC) 97 % of control | [1] 95 % of control | [2] 101 % of control | [3] 111 % of control | dose: 200.0 mg/kg/injection, schedule: Q01DX009 (ip), vehicle: Klucel (hydroxypropylcellulose) (HPC) 119 % of control

CCc1nc(N)nc(N)c1-c1ccc(Cl)c(NC(C)=O)c1
inactive: dose: 3.13 mg/kg/injection, schedule: Q01DX009 (ip), vehicle: distilled water + Tween-80 94 % of control | dose: 6.25 mg/kg/injection, schedule: Q01DX009 (ip), vehicle: distilled water + Tween-80 94 % of control | dose: 12.5 mg/kg/injection, schedule: Q01DX009 (ip), vehicle: distilled water + Tween-80 94 % of control | dose: 25.0 mg/kg/injection, schedule: Q01DX009 (ip), vehicle: distilled water + Tween-80 88 % of control | dose: 50.0 mg/kg/injection, schedule: Q01DX009 (ip), vehicle: distilled water + Tween-80 91 % of control

S=C(S)N(Cc1ccccc1)Cc1ccccc1 (tested in a mixture with another compound)
inactive: [4] 105 % of control | [5] 105 % of control | [6] 101 % of control

Cc1ccccc1C(C)(O)Cc1nccn1Cc1ccccc1 (configuration not stated)
inactive: [4] 99 % of control | [5] 104 % of control | [6] 96 % of control

C(=C=C(c1ccccc1)c1ccccc1)=C(c1ccccc1)c1ccccc1
inactive: [7] 101 % of control | [8] 93 % of control | dose: 200.0 mg/kg/injection, schedule: Q01DX009 (ip), vehicle: saline 92 % of control

NC(N)=NCC1CCCCCCN1 (configuration not stated)
inactive: dose: 12.5 mg/kg/injection, schedule: Q01DX009 (ip), vehicle: saline 106 % of control | dose: 25.0 mg/kg/injection, schedule: Q01DX009 (ip), vehicle: saline 100 % of control | [7] 104 % of control | [8] 104 % of control

CCN(CC)C(C)(C)C(=O)/C=C/c1ccc(OC)cc1
inactive: [4] 115 % of control | [5] 107 % of control | [6] 100 % of control

COc1ccc(C2CC(=O)CC2c2ccc(OC)cc2)cc1 (configuration not stated)
inactive: dose: 50.0 mg/kg/injection, schedule: Q01DX001 (ip), vehicle: Klucel (hydroxypropylcellulose) (HPC) 99 % of control | dose: 100.0 mg/kg/injection, schedule: Q01DX001 (ip), vehicle: Klucel (hydroxypropylcellulose) (HPC) 100 % of control | dose: 200.0 mg/kg/injection, schedule: Q01DX001 (ip), vehicle: Klucel (hydroxypropylcellulose) (HPC) 100 % of control

CCOc1ccn(CC(=O)N2CCOCC2)c(=O)n1
inactive: dose: 100.0 mg/kg/injection, schedule: Q04DX003 (ip), vehicle: water 90 % of control | dose: 200.0 mg/kg/injection, schedule: Q04DX003 (ip), vehicle: water 100 % of control | dose: 400.0 mg/kg/injection, schedule: Q04DX003 (ip), vehicle: water 90 % of control
